Consider three molecules from PubChem BioAssay (NCI).

Common to all, as to experiment: NCI anticancer screen, dose series, 48 h
Assay [1] has as its system M19-MEL melanoma.
Assay [2] deals with DMS 114 small cell lung.
Assay [3] deals with DLD-1 colon.
For assay [4], the system named is RXF-631 renal.

Molecules are shown by their SMILES.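 Each compound was tested at five concentrations against cells in 96-well plates for 48 hours. TGI marks complete inhibition of growth.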 A value given as a limit tells only on which side of the number the result lay.

With `CN(/N=N/c1nc[nH]c1C(N)=O)C1CCCCC1`, the TGI in assay [1], in assay [2] and in assay [3] was > 100 µM in each case.
Consider `COC(=O)C1=C(C)N(NC(=O)c2ccccc2)C2(O)CCCC(=O)C12C` (configuration not stated), for which the TGI in assay [2], in assay [4] and in assay [3] was > 100 µM in each case.
Consider `C=CCC1(CC)C(=O)NC(=O)NC1=O`, for which the TGI in assay [1] is > 100 µM.
